Results taken from patent publication US10202361B2, “Pyridazinones as herbicides” (E I DU PONT DE NEMOURS AND COMPANY, priority 2014, dated 2019).
Where two headings read alike, the source gives them in different places.

How the values were obtained:
Format in all cases: in vivo
[1] = tested on: surinam grass (Brachiaria decumbens); experiment: Test E pre-/postemergence greenhouse herbicide test; conditions: Preemergence, scale 0 to 100
[2] = tested on: corn (Zea mays); experiment: Test A pre-/postemergence greenhouse herbicide test; conditions: Zea mays, 240 h, 0 to 100 scale (0 no effect, 100 complete control), approx. 10 d; for Corn plant response rating (crop injury, 0 = no effect, 100 = complete kill) at 125 g/ha: 125 g ai/ha; for Corn plant response rating (crop injury, 0 = no effect, 100 = complete kill) at 500 g/ha: 500 g ai/ha
Summary of the method: (§1)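 Greenhouse pot test, loam/sand soil. Pre: directed soil spray at seeding; post: foliar spray, 1–2 leaf, 2–10 cm height, same day. Read-out ~10 d: visual % control, 0–100 scale vs untreated.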

[3] = tested on: pigweed (Amaranthus retroflexus); experiment: as above; conditions: Amaranthus retroflexus, 240 h, 0 to 100 scale (0 no effect, 100 complete control), approx. 10 d, read-out: Plant response rating, Pigweed; for pest or weed control at 125 g/ha: 125 g ai/ha; for pest or weed control at 500 g/ha: 500 g ai/ha
Summary of the method: as §1

[4] = tested on: crabgrass, Large (large crabgrass, Digitaria sanguinalis); experiment: as above; conditions: Digitaria sanguinalis, 240 h, 0 to 100 scale (0 no effect, 100 complete control), approx. 10 d, read-out: Plant response rating, Crabgrass, Large; for pest or weed control at 125 g/ha: 125 g ai/ha; for pest or weed control at 500 g/ha: 500 g ai/ha
Summary of the method: as §1

[5] = tested on: wheat (Triticum aestivum); experiment: as above; conditions: Triticum aestivum, 240 h, 0 to 100 scale (0 no effect, 100 complete control), approx. 10 d, read-out: Plant response rating, Wheat; for plant injury at 125 g/ha: 125 g ai/ha; for plant injury at 500 g/ha: 500 g ai/ha
Summary of the method: as §1

[6] = tested on: morningglory (Ipomoea spp.); experiment: as above; conditions: Ipomoea, 240 h, 0 to 100 scale (0 no effect, 100 complete control), approx. 10 d, read-out: Plant response rating, Morningglory; for pest or weed control at 125 g/ha: 125 g ai/ha; for pest or weed control at 500 g/ha: 500 g ai/ha
Summary of the method: as §1

[7] = tested on: velvetleaf (Abutilon theophrasti); experiment: as above; conditions: Abutilon theophrasti, 240 h, 0 to 100 scale (0 no effect, 100 complete control), approx. 10 d, read-out: Plant response rating, Velvetleaf; for pest or weed control at 125 g/ha: 125 g ai/ha; for pest or weed control at 500 g/ha: 500 g ai/ha
Summary of the method: as §1

[8] = tested on: barnyardgrass (Echinochloa crus-galli); experiment: as above; conditions: Echinochloa crus-galli, 240 h, 0 to 100 scale (0 no effect, 100 complete control), approx. 10 d, read-out: Plant response rating, Barnyardgrass; for pest or weed control at 125 g/ha: 125 g ai/ha; for pest or weed control at 500 g/ha: 500 g ai/ha
Summary of the method: as §1

[9] = tested on: foxtail, giant (giant foxtail, Setaria faberii); experiment: as above; conditions: Setaria faberi, 240 h, 0 to 100 scale (0 no effect, 100 complete control), approx. 10 d, read-out: Plant response rating, Foxtail, Giant; for pest or weed control at 125 g/ha: 125 g ai/ha; for pest or weed control at 500 g/ha: 500 g ai/ha
Summary of the method: as §1

[10] = tested on: wheat (winter wheat, Triticum aestivum); experiment: Test C pre-/postemergence greenhouse herbicide test; conditions: Triticum aestivum, Wheat, read-out: Plant response rating; for plant injury at 62 g/ha: 62 g ai/ha; for plant injury at 125 g/ha: 125 g ai/ha; for plant injury at 250 g/ha: 250 g ai/ha
Summary of the method: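 Seeds in loam–sand blend sprayed preemergence, and 1- to 4-leaf plants (2–18 cm) sprayed postemergence, with compounds in non-phytotoxic solvent plus surfactant. Visual rating versus controls after 13–15 d in greenhouse, 0 (no effect) to 100 (complete control).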

## COc1cc(=O)n(-c2ccc(C(F)(F)F)cc2)nc1Cc1ccnc(C(F)(F)F)c1 [Compound 16, 5-methoxy-2-[4-(trifluoromethyl)phenyl]-6-[[2-(trifluoromethyl)-4-pyridinyl]methyl]-3(2H)-pyridazinone]
[1]; 62 g ai/ha
  Plant response rating: Surinam Grass: 25
[1]; 125 g ai/ha
  Plant response rating: Surinam Grass: 40
[1]; 250 g ai/ha
  Plant response rating: Surinam Grass: 98
[2]; post-emergence, Postemergence
  Corn plant response rating (crop injury, 0 = no effect, 100 = complete kill) at 125 g/ha: 20%
  Corn plant response rating (crop injury, 0 = no effect, 100 = complete kill) at 500 g/ha: 80%
[2]; pre-emergence, Preemergence
  Corn plant response rating (crop injury, 0 = no effect, 100 = complete kill) at 125 g/ha: 40%
  Corn plant response rating (crop injury, 0 = no effect, 100 = complete kill) at 500 g/ha: 70%
[3]; post-emergence, Postemergence
  pest or weed control at 125 g/ha: 100%
  pest or weed control at 500 g/ha: 100%
[3]; pre-emergence, Preemergence
  pest or weed control at 125 g/ha: 100%
  pest or weed control at 500 g/ha: 100%
[4]; post-emergence, Postemergence
  pest or weed control at 125 g/ha: 90%
  pest or weed control at 500 g/ha: 100%
[4]; pre-emergence, Preemergence
  pest or weed control at 125 g/ha: 100%
  pest or weed control at 500 g/ha: 100%
[5]; post-emergence, Postemergence
  plant injury at 125 g/ha: 60%
  plant injury at 500 g/ha: 70%
[5]; pre-emergence, Preemergence
  plant injury at 125 g/ha: 20%
  plant injury at 500 g/ha: 70%
[6]; post-emergence, Postemergence
  pest or weed control at 125 g/ha: 90%
  pest or weed control at 500 g/ha: 100%
[6]; pre-emergence, Preemergence
  pest or weed control at 125 g/ha: 80%
  pest or weed control at 500 g/ha: 80%
[7]; post-emergence, Postemergence
  pest or weed control at 125 g/ha: 80%
  pest or weed control at 500 g/ha: 100%
[7]; pre-emergence, Preemergence
  pest or weed control at 125 g/ha: 30%
  pest or weed control at 500 g/ha: 80%
[8]; post-emergence, Postemergence
  pest or weed control at 125 g/ha: 80%
  pest or weed control at 500 g/ha: 90%
[8]; pre-emergence, Preemergence
  pest or weed control at 125 g/ha: 90%
  pest or weed control at 500 g/ha: 100%
[9]; post-emergence, Postemergence
  pest or weed control at 125 g/ha: 90%
  pest or weed control at 500 g/ha: 90%
[9]; pre-emergence, Preemergence
  pest or weed control at 125 g/ha: 100%
  pest or weed control at 500 g/ha: 100%
[10]; post-emergence, Postemergence, 31 g ai/ha
  plant injury at 31 g/ha: 5%
[10]; post-emergence, Postemergence
  plant injury at 62 g/ha: 5%
  plant injury at 125 g/ha: 10%
  plant injury at 250 g/ha: 10%
[10]; pre-emergence, Preemergence
  plant injury at 62 g/ha: 25%
  plant injury at 125 g/ha: 45%
  plant injury at 250 g/ha: 50%
